Here are results for four substances from article PMC6689431 (Biochimica et biophysica acta. Biomembranes, 2019).

The nature of data set [1]: Fluorescence intensity of TAMRA-labeled peptides at different pH / buffers. It is filed as physicochemical. Particulars: 0.2 µM peptide; for fluorescence intensity in Tris buffer pH 8: 50 mM Tris pH 8, λex 544/λem 590 nm, mean ± SD.
Data set [2] is described as follows: Fluorescence intensity of TAMRA-labeled peptides with detergents. Particulars: 0.2 µM peptide, 50 mM Tris pH 8 + 0.1% (w/v) SDS, no cells, λex 544/λem 590 nm. It is filed as physicochemical.

Take “^*-GALFLGWLGAAGSTMGAWSQPKKKRKV-ANSRWPTSII [*MPG-iCAL36]”: in data set [1], the “decrease of fluorescence intensity, citric acid versus Tris buffer, both pH 8” value stood at 36% and the “fluorescence intensity in Tris buffer pH 8” value is given as 68,132 ± 5,731. Besides, in data set [2], the “increase of fluorescence intensity in Tris+SDS compared to Tris buffer alone” value (from here on “increase of fluorescence intensity”) amounted to 7 ×.

As to “^*-GRKKRRQRRRPPQ-ANSRWPTSII [*Tat-iCAL36]”, in data set [1], the “fluorescence intensity in Tris buffer pH 8” value is 103,693 ± 2,848.

“^*-LLRLLRWWWRLLRLL-ANSRWPTSII [*WRAP5-iCAL36]”: in data set [2], the “increase of fluorescence intensity” value is recorded as 15 ×. Consider “^*-RLWRLLWRLWRRLWRLLR-ANSRWPTSII [*C6M1-iCAL36]”, for which, in data set [2], the “increase of fluorescence intensity” value is on record as 9 ×.
